Measured values reported in ChEMBL document CHEMBL1909046, “DrugMatrix in vitro pharmacology data”.

Key:
[1] = biological target: T1, Calcitonin receptor (Homo sapiens, UniProt P30988); type: cell membranes, Membrane; settings: t47d; note: in other assays of this panel Not Active means under 50% inhibition at 10 µM
T1 sequence (P30988 whole entry): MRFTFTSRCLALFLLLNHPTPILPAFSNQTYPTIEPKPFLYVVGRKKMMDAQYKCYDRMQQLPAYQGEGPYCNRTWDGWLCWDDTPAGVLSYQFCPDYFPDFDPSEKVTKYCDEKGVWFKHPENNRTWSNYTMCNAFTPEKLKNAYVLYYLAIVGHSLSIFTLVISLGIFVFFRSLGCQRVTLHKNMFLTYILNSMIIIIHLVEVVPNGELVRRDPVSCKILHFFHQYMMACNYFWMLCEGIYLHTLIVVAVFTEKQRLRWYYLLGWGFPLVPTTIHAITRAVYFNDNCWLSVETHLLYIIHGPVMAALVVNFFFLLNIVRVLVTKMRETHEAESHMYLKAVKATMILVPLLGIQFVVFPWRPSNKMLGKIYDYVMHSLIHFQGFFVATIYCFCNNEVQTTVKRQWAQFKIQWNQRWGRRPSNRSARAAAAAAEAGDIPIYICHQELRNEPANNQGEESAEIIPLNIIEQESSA

[2] = biological target: T2, C-C chemokine receptor type 4 (Homo sapiens, UniProt P51679); type: cell membranes, Membrane; settings: chem-1; note: in other assays of this panel Not Active means under 50% inhibition at 10 µM
T2 sequence (P51679 whole entry): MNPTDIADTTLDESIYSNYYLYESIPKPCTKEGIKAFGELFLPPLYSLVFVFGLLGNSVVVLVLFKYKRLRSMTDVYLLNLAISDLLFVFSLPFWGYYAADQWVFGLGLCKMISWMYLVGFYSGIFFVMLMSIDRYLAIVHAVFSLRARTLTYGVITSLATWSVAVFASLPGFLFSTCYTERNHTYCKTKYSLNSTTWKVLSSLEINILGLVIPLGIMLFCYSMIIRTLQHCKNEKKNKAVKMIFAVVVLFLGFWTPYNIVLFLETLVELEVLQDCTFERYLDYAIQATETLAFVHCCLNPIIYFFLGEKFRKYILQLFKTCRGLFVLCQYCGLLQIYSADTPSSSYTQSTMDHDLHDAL

[3] = biological target: T3, Cholecystokinin receptor type A (Homo sapiens, UniProt P32238); type: cell membranes, Membrane; settings: 1321-n1; note: in other assays of this panel Not Active means under 50% inhibition at 10 µM
T3 sequence (P32238 whole entry): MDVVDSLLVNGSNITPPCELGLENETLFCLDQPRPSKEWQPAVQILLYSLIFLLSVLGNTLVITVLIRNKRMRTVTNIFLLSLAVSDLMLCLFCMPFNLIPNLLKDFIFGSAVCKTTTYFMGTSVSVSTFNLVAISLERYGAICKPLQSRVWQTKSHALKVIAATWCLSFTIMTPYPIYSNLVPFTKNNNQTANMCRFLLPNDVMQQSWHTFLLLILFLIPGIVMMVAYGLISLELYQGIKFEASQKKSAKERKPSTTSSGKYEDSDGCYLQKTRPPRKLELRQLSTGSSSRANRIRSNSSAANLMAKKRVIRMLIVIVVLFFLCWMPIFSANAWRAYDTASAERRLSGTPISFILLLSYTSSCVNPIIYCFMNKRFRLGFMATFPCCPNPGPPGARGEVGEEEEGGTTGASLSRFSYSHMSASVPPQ

[4] = biological target: D(1A) dopamine receptor (Homo sapiens, UniProt P21728); assay: DRUGMATRIX: Dopamine D1 radioligand binding (ligand: [3H] SCH-23390); type: cell membranes, Membrane; settings: cho; Not Active = under 50% inhibition at 10 µM
[5] = biological target: Kappa-type opioid receptor (Homo sapiens, UniProt P41145); assay: DRUGMATRIX: Opiate kappa (OP2, KOP) radioligand binding (ligand: [3H] Diprenorphine); type: cell membranes, HEK293, Membrane; settings: hek293; Not Active = under 50% inhibition at 10 µM
[6] = biological target: T4, Caspase-1 (Homo sapiens, UniProt P29466); set-up: species or system Escherichia coli;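 note: Caspase-1 enzyme inhibition assay with a peptide substrate; in other assays of this panel Not Active means under 50% inhibition at 10 µM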
T4 sequence (P29466 whole entry): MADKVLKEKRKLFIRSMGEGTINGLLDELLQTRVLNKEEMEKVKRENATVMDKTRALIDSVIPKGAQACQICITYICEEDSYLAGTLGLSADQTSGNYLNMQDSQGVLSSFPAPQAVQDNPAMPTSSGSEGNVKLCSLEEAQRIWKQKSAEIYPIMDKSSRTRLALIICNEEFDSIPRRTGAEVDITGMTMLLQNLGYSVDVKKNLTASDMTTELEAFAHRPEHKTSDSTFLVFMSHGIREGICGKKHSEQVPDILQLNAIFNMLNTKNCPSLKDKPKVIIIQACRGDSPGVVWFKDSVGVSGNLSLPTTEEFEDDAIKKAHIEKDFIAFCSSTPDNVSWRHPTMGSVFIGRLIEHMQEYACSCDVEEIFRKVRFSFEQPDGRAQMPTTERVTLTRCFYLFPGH

[7] = biological target: T5, Cytochrome P450 2A6 (Homo sapiens, UniProt P11509); settings: bti-tn-5b1-4; note: in other assays of this panel Not Active means under 50% inhibition at 10 µM
T5 sequence (P11509 whole entry): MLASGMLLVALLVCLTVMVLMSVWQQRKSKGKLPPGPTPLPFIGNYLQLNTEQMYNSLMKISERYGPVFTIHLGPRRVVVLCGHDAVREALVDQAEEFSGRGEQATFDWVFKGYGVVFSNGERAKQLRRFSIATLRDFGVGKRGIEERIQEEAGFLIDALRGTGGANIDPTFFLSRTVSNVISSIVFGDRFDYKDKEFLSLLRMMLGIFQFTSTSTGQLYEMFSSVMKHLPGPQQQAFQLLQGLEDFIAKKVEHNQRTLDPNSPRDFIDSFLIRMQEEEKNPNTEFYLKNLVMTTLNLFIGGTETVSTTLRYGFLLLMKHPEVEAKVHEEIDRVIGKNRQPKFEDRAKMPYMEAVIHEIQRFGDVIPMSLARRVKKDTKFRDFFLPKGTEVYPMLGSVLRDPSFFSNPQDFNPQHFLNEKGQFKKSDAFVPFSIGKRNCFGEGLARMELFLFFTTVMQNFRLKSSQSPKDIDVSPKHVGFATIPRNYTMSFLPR

[8] = biological target: Cytochrome P450 2C19 (Homo sapiens, UniProt P33261); settings: bti-tn-5b1-4; note: in other assays of this panel Not Active means under 50% inhibition at 10 µM
Sequence of Cytochrome P450 2C19 (P33261 whole entry): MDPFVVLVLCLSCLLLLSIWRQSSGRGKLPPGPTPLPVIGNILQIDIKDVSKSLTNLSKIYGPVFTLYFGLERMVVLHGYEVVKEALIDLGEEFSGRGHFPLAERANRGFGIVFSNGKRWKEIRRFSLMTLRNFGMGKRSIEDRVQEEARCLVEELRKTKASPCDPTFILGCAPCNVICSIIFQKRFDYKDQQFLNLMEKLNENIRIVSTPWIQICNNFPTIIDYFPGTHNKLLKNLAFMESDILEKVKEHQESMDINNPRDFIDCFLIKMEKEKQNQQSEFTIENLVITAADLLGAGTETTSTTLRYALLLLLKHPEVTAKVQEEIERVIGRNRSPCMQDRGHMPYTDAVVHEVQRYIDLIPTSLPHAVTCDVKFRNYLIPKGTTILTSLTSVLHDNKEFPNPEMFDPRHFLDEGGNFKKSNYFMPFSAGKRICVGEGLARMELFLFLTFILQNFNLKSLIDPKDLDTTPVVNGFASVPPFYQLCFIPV

Sequence of Kappa-type opioid receptor (P41145 whole entry): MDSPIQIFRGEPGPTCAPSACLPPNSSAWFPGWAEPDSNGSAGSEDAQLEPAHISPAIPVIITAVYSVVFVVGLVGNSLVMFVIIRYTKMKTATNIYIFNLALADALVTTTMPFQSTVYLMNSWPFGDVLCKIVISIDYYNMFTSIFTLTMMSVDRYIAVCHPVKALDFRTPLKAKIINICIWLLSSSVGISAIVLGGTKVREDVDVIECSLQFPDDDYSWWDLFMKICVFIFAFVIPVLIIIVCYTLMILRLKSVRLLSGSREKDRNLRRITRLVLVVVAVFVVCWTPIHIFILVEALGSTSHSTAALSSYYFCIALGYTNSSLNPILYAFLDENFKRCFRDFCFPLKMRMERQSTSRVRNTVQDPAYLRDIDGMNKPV
Sequence of D(1A) dopamine receptor (P21728 whole entry): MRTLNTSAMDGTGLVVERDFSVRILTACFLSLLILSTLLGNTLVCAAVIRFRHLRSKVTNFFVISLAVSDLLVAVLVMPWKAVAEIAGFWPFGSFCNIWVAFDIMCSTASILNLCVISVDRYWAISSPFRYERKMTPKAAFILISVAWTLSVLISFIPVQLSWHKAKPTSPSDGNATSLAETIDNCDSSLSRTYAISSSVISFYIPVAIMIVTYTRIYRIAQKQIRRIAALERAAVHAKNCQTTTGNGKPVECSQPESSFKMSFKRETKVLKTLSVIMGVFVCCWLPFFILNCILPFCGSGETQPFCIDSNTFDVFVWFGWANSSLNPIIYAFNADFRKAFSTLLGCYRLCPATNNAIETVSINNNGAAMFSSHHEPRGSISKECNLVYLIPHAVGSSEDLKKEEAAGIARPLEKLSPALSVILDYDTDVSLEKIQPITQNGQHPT

Row | SMILES | IC50 [1] | IC50 [2] | IC50 [3] | IC50 [4] | IC50 [5] | IC50 [6] | IC50 [7] | Ki [7] | IC50 [8] | Ki [8] | IC50 ([6]; read-out: IC50)
1 | CCOC(=O)[C@H](CCc1ccccc1)N[C@H]1CCc2ccccc2N(CC(=O)O)C1=O [BENAZEPRIL] | Not Active | Not Active | Not Active | Not Active | Not Active | Not Active | Not Active | Not Active | Not Active | Not Active | 
2 | Nc1c(CC(=O)O)cccc1C(=O)c1ccc(Br)cc1 [BROMFENAC] | Not Active | Not Active | Not Active | Not Active | Not Active | Not Active | Not Active | Not Active | Not Active | Not Active | 
3 | CCCCN1CCCCC1C(=O)Nc1c(C)cccc1C.Cl (stereo not given) [BUPIVACAINE HYDROCHLORIDE] | Not Active | Not Active | Not Active | Not Active | Not Active | Not Active | Not Active | Not Active | Not Active | Not Active | 
4 | O=C1CC2(CCCC2)CC(=O)N1CCCCN1CCN(c2ncccn2)CC1 [BUSPIRONE] | Not Active | Not Active | Not Active | Not Active | Not Active | Not Active | Not Active | Not Active | Not Active | Not Active | 
5 | ClC(Cl)Cl [CHLOROFORM] | Not Active | Not Active | Not Active | Not Active | Not Active | Not Active | Not Active | Not Active | Not Active | Not Active | 
6 | C=C1CC[C@H](O)C/C1=C/C=C1\CCC[C@]2(C)[C@@H]([C@H](C)CCCC(C)C)CC[C@@H]12 [CHOLECALCIFEROL] | Not Active | Not Active | Not Active | Not Active | Not Active | Not Active | Not Active | Not Active | Not Active | Not Active | 
7 | C[N+](C)(C)CCO.[Cl-] [CHOLINE CHLORIDE] | Not Active | Not Active | Not Active | Not Active | Not Active | Not Active | Not Active | Not Active | Not Active | Not Active | 
8 | CC(=O)OCC(=O)[C@@]1(O)CC[C@H]2[C@@H]3CCC4=CC(=O)CC[C@]4(C)[C@H]3C(=O)C[C@@]21C [CORTISONE ACETATE] | Not Active | Not Active | Not Active | Not Active | Not Active | Not Active | Not Active | Not Active | Not Active | Not Active | 
9 | O=c1ccc2ccccc2o1 [COUMARIN] | Not Active | Not Active | Not Active | Not Active | Not Active | Not Active | Not Active | Not Active | Not Active | Not Active | 
10 | CN(C)/N=N/c1[nH]cnc1C(N)=O [DACARBAZINE] | Not Active | Not Active | Not Active | Not Active | Not Active | Not Active | Not Active | Not Active | Not Active | Not Active | 
11 | COc1ccc2c(c1)[C@]13CCCC[C@@H]1[C@H](C2)N(C)CC3 [DEXTROMETHORPHAN] | Not Active | Not Active | Not Active | Not Active | Not Active | Not Active | Not Active | Not Active | Not Active | Not Active | 
12 | CC(=O)Nc1c(I)c(NC(C)=O)c(I)c(C(=O)O)c1I [DIATRIZOIC ACID] | Not Active | Not Active | Not Active | Not Active | Not Active | Not Active | Not Active | Not Active | Not Active | Not Active | 
13 | O=C(O)Cc1ccccc1Nc1c(Cl)cccc1Cl [DICLOFENAC] | Not Active | Not Active | Not Active | Not Active | Not Active | Not Active | Not Active | Not Active | Not Active | Not Active | 
14 | C[C@H]1O[C@@H](O[C@H]2[C@@H](O)C[C@H](O[C@H]3[C@@H](O)C[C@H](O[C@H]4CC[C@@]5(C)[C@H](CC[C@@H]6[C@@H]5CC[C@]5(C)[C@@H](C7=CC(=O)OC7)CC[C@]65O)C4)O[C@@H]3C)O[C@@H]2C)C[C@H](O)[C@@H]1O [DIGITOXIN] | Not Active | Not Active | Not Active | Not Active | Not Active | Not Active | Not Active | Not Active | Not Active | Not Active | 
15 | CCN1CC(CCN2CCOCC2)C(c2ccccc2)(c2ccccc2)C1=O (stereo not given) [DOXAPRAM] | Not Active | Not Active | Not Active | Not Active | Not Active | Not Active | Not Active | Not Active | Not Active | Not Active | 
16 | Cn1c(=O)c2c(ncn2CC2OCCO2)n(C)c1=O [DOXOFYLLINE] | Not Active | Not Active | Not Active | Not Active | Not Active | Not Active | Not Active | Not Active | Not Active | Not Active | 
17 | COc1cccc2c1C(=O)c1c(O)c3c(c(O)c1C2=O)C[C@@](O)(C(=O)CO)C[C@@H]3O[C@H]1C[C@H](N)[C@H](O)[C@H](C)O1 [DOXORUBICIN] | Not Active | Not Active | Not Active | Not Active | Not Active |  | Not Active | Not Active | Not Active | Not Active | 12.2 µM
